ChEMBL document CHEMBL4265990, “Synthesis, anticancer activity and cytotoxicity of galactosylated epothilone B” (Bioorg Med Chem, 2018)

What was measured:
[1] = test system: MCF7; assay: Antiproliferative activity against human MCF7 cells at 0.01 to 100 nmol/L after 2 days by MTT assay; type: functional
[2] = test system: MCF7; assay: Antiproliferative activity against human MCF7 cells after 2 days by MTT assay; type: functional, cell-based; conditions: for IC50: MCF7, 48 h

SMILES	Activity [1]	IC50 [2] [nM]	Activity [2]
C/C(=C\c1csc(C)n1)[C@@H]1C[C@@H]2O[C@]2(C)CCC[C@H](C)[C@H](OC(=O)CO[C@@H]2O[C@H](CO)[C@H](O)[C@H](O)[C@H]2O)[C@@H](C)C(=O)C(C)(C)[C@@H](O)CC(=O)O1	7.9 - 98.6%	5730	
C/C(=C\c1csc(C)n1)[C@@H]1C[C@@H]2O[C@]2(C)CCC[C@H](C)[C@H](O)[C@@H](C)C(=O)C(C)(C)[C@@H](O)CC(=O)O1 [PATUPILONE]	3 - 80.3%	38.2	Dose-dependent effect
